Patent US20250340551A1, “SMALL MOLECULE MODULATORS OF STAT6” (Gilead Sciences, Inc., priority 2024, published 2025)
pKd: −log10 of the molar value.

Molecular target: human STAT6 (Homo sapiens (Human), UniProt P42226)
Assay: Surface plasmon resonance assay (Biacore 8K, binding to immobilized STAT6)
Settings: human STAT6 aa122-658, N-terminal His-tag, CM5 chip, 25° C.; geometric mean; read-out: STAT6 SPR Kd
Procedure: Biacore instruments from the 8K-series (Cytiva) were used, and measurements were performed at 25° C. Human STAT6 (truncated, aa122-658, with N-terminal His-tag, expressed in insect cells) was immobilized in the active flow cells on a CM5 chip using amine-coupling (default settings) at 10 μg/ml in 10 mM acetate buffer pH 5.5, at a contact time of 120-420 sec. and a flow rate of 10 μl/min. Reference flow cells were deactivated using blank immobilization. PBS-P+ (Cytiva) supplemented with 2% DMSO was used as running buffer, and solvent correction was applied. Compounds were tested by multi-cycle kinetics injections using a contact time of 60 sec., dissociation time of up to 300 sec., and a flow rate of 30 μl/min.
Solvent-corrected, reference-subtracted and blank-corrected data was processed and binding isotherms were fitted according to a single report point from each sensorgram (Standard: Late binding (5 sec. before injection end); alternative: Earlier report point according to binding profile). Data fitting was done both with unfixed Rmax and with Rmax fixed to the theoretical value* assuming 1:1 binding to allow processing of data from both weak and strong binders as well as to evaluate binding stoichiometry.
Positive controls were run at the beginning, during, and at the end of the screen to evaluate surface activity.

Chain of human STAT6 (P42226 122-658): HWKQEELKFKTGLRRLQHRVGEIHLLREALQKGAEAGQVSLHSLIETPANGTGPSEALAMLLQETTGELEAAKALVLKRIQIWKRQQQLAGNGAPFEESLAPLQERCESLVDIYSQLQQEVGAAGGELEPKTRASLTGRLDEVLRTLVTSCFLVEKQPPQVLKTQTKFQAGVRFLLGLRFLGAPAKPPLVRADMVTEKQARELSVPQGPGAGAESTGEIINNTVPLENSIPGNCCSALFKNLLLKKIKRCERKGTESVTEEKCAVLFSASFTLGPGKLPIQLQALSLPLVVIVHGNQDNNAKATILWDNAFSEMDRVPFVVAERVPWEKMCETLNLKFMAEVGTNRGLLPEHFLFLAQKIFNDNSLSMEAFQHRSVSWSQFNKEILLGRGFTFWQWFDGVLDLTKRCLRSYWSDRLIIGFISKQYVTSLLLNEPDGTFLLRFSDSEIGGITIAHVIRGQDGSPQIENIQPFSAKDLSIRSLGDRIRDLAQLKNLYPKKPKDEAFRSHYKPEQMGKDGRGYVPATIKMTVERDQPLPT

Row | pKd | SMILES
1 | 6.47 | CN(C)C(=O)c1ccc(C2CCN(Cc3cc4c(-c5cnc(N)c(C(F)F)c5)ccnc4n3C)CC2)cc1 [Example 1k24, 4-[1-[[4-[6-Amino-5-(difluoromethyl)-3-pyridyl]-1-methyl-pyrrolo[2,3-b]pyridin-2-yl]methyl]-4-piperidyl]-N,N-dimethyl-benzamide]
2 | 5.30 | CN(C)C(=O)c1ccc(C2CCN(Cc3cc4c(-c5cnc(N)cc5C(F)(F)F)ccnc4n3C)CC2)cc1 [Example 1k27, 4-[1-[[4-[6-Amino-4-(trifluoromethyl)-3-pyridyl]-1-methyl-pyrrolo[2,3-b]pyridin-2-yl]methyl]-4-piperidyl]-N,N-dimethyl-benzamide]
3 | 7.08 | CN(C)C(=O)c1ccc(C2CCN(Cc3cc4c(-c5ccc(N)c(C#N)n5)ccnc4n3C)CC2)cc1 [Example 1k75, 4-(1-((4-(5-Amino-6-cyanopyridin-2-yl)-1-methyl-1H-pyrrolo[2,3-b]pyridin-2-yl)methyl)piperidin-4-yl)-N,N-dimethylbenzamide]
4 | 7.22 | CN(C)C(=O)c1ccc(C2CCN(Cc3cc4c(-c5ccc(N)nc5CO)ccnc4n3C)CC2)cc1 [Example 1k58, 4-[1-[[4-[6-Amino-2-(hydroxymethyl)-3-pyridyl]-1-methyl-pyrrolo[2,3-b]pyridin-2-yl]methyl]-4-piperidyl]-N,N-dimethyl-benzamide]
5 | 7.56 | [2H]C([2H])([2H])n1c(CN2CCC(c3ccc(C(=O)N(C)C)cc3)CC2)cc2c(-c3ccc(N)nc3C#N)ccnc21 [Example 1k45, 4-[1-[[4-(6-Amino-2-cyano-3-pyridyl)-1-(trideuteriomethyl)pyrrolo[2,3-b]pyridin-2-yl]methyl]-4-piperidyl]-N,N-dimethyl-benzamide]
6 | 5.85 | COC(=O)c1cc(N)ncc1-c1ccnc2c1cc(CN1CCC(c3ccc(C(=O)N(C)C)cc3)CC1)n2C [Example 1k56, Methyl 2-amino-5-[2-[[4-[4-(dimethylcarbamoyl)phenyl]-1-piperidyl]methyl]-1-methyl-pyrrolo[2,3-b]pyridin-4-yl]pyridine-4-carboxylate]
7 | 5.82 | Cc1nc(-c2ccnc3c2cc(CN2CCC(c4ccc(C(=O)N(C)C)cc4)CC2)n3C)cnc1N [Example 1k20, 4-[1-[[4-(5-Amino-6-methyl-pyrazin-2-yl)-1-methyl-pyrrolo[2,3-b]pyridin-2-yl]methyl]-4-piperidyl]-N,N-dimethyl-benzamide]
8 | 5.27 | C[C@@H]1C[C@@H](c2ccc(C(=O)N(C)C)cc2)CCN1Cc1cc2c(-c3ccc(N)cn3)ccnc2n1C (single isomer, unassigned) [Example 1q7]
9 | 6.60 | CN(C)C(=O)c1ccc(C2CCN(Cc3cc4c(-c5ccc6[nH]cc(C(=O)C(F)(F)F)c6c5)ccnc4n3C)CC2)cc1 [Example 1m145, N,N-dimethyl-4-(1-((1-methyl-4-(3-(2,2,2-trifluoroacetyl)-1H-indol-5-yl)-1H-pyrrolo[2,3-b]pyridin-2-yl)methyl)piperidin-4-yl)benzamide]
10 | 7.65 | [2H]C([2H])([2H])N(C(=O)c1ccc(C2CCN(Cc3cc4c(-c5cnc(N)cc5F)ccnc4n3C)CC2)cc1)C([2H])([2H])[2H] [Example 1k16, 4-[1-[[4-(6-Amino-4-fluoro-3-pyridyl)-1-methyl-pyrrolo[2,3-b]pyridin-2-yl]methyl]-4-piperidyl]-N,N-bis(trideuteriomethyl)benzamide]
11 | 5.14 | CN(C)C(=O)c1ccc(C2CCN(Cc3cc4c(-c5ncc(N)cc5C(F)(F)F)ccnc4n3C)CC2)cc1 [Example 1k74, 4-[1-[[4-[5-Amino-3-(trifluoromethyl)-2-pyridyl]-1-methyl-pyrrolo[2,3-b]pyridin-2-yl]methyl]-4-piperidyl]-N,N-dimethyl-benzamide]
12 | 7.60 | [2H]C([2H])([2H])N(C(=O)c1ccc(C2CCN(Cc3cc4c(-c5ccc(N)cn5)ccnc4n3C)CC2)cc1)C([2H])([2H])[2H] [Example 1ae10, 4-[1-[[4-(5-Amino-2-pyridyl)-1-methyl-pyrrolo[2,3-b]pyridin-2-yl]methyl]-4-piperidyl]-N,N-bis(trideuteriomethyl)benzamide]
13 | 7.27 | COc1nc(-c2ccnc3c2cc(CN2CCC(c4ccc(C(=O)N(C)C)cc4)CC2)n3C)ccc1N [Example 1ad2, 4-(1-((4-(5-Amino-6-methoxypyridin-2-yl)-1-methyl-1H-pyrrolo[2,3-b]pyridin-2-yl)methyl)piperidin-4-yl)-N,N-dimethylbenzamide]

Second part, the molecule before the results:

Row | SMILES | pKd
14 | Cc1cc(C(=O)N(C)C)ccc1C1CCN([C@@H](C)c2cc3c(-c4ccc(N)cn4)ccnc3n2C)CC1 [Example 1af17, (S)-4-(1-(1-(4-(5-aminopyridin-2-yl)-1-methyl-1H-pyrrolo[2,3-b]pyridin-2-yl)ethyl)piperidin-4-yl)-N,N,3-trimethylbenzamide] | 5.19
15 | CNc1ccc(-c2ccnc3c2cc([C@H](C)N2CCC(c4ccc(C(=O)N(C)C)cc4)CC2)n3C)cn1 (single isomer, unassigned) [Example 1af7] | 6.65
16 | C[C@@H](c1cc2c(-c3ccc(N)cn3)ccnc2n1C)N1CC=C(c2ccc(C(=O)N(C)C)cc2)CC1 [Example 1af19, (S)-4-(1-(1-(4-(5-Aminopyridin-2-yl)-1-methyl-1H-pyrrolo[2,3-b]pyridin-2-yl)ethyl)-1,2,3,6-tetrahydropyridin-4-yl)-N,N-dimethylbenzamide] | 5.63
17 | CNc1ccc(-c2ccnc3c2cc(CN2CCC(c4ncc(C(=O)N(C)C)cc4C)CC2)n3C)cn1 [Example 1s15, N,N,5-Trimethyl-6-[1-[[1-methyl-4-[6-(methylamino)-3-pyridyl]pyrrolo[2,3-b]pyridin-2-yl]methyl]-4-piperidyl]pyridine-3-carboxamide] | 6.92
18 | Cc1cc(C(=O)N(C)C)ccc1C1=CCN([C@@H](C)c2cc3c(-c4ccc(N)cn4)ccnc3n2C)CC1 [Example 1af32, (S)-4-(1-(1-(4-(5-Aminopyridin-2-yl)-1-methyl-1H-pyrrolo[2,3-b]pyridin-2-yl)ethyl)-1,2,3,6-tetrahydropyridin-4-yl)-N,N,3-trimethylbenzamide] | 6.54
19 | CNc1ccc(-c2ccnc3c2cc(CN2CCN(c4ccc(C(=O)N(C)C)cn4)CC2)n3C)cn1 [Example 1n7, N,N-Dimethyl-6-[4-[[1-methyl-4-[6-(methylamino)-3-pyridyl]pyrrolo[2,3-b]pyridin-2-yl]methyl]piperazin-1-yl]pyridine-3-carboxamide] | 5.98
20 | [2H]C([2H])([2H])N(C(=O)c1ccc(C2=CCN([C@@H](C)c3cc4c(-c5ccc(N)cn5)ccnc4n3C)CC2)c(C)c1)C([2H])([2H])[2H] [Example 1af31, (S)-4-(1-(1-(4-(5-aminopyridin-2-yl)-1-methyl-1H-pyrrolo[2,3-b]pyridin-2-yl)ethyl)-1,2,3,6-tetrahydropyridin-4-yl)-3-methyl-N,N-bis(methyl-d3)benzamide] | 6.77
21 | [2H]C([2H])([2H])N(C(=O)c1ccc(C2CCN([C@H](C)c3cc4c(-c5ccc(N)nc5C#N)ccnc4n3C)CC2)cc1)C([2H])([2H])[2H] [Example 1af30, (R)-4-(1-(1-(4-(6-amino-2-cyanopyridin-3-yl)-1-methyl-1H-pyrrolo[2,3-b]pyridin-2-yl)ethyl)piperidin-4-yl)-N,N-bis(methyl-d3)benzamide] | 7.62
22 | CNc1ccc(-c2ccnc3c2cc(CN2CC[C@H](c4ccc(C(=O)N(C)C)cc4)C[C@@H]2C)n3C)nc1 [Example 1o27, N,N-dimethyl-4-((2S,4S)-2-methyl-1-((1-methyl-4-(5-(methylamino)-pyridin-2-yl)-1H-pyrrolo[2,3-b]pyridin-2-yl)methyl)piperidin-4-yl)benzamide] | 6.83
23 | [2H]C([2H])([2H])N(C(=O)c1ccc(C2CCN([C@@H](C)c3cc4c(-c5ccc(N)cn5)ccnc4n3C)CC2)c(C)c1)C([2H])([2H])[2H] [Example 1af41, (S)-4-(1-(1-(4-(5-Aminopyridin-2-yl)-1-methyl-1H-pyrrolo[2,3-b]pyridin-2-yl)ethyl)-piperidin-4-yl)-3-methyl-N,N-bis(methyl-d3)benzamide] | 5.48
24 | CNc1ccc(-c2ccnc3c2cc(CN2CCC(n4ccc(C(=O)N(C)C)cc4=O)CC2)n3C)cn1 [Example 1s6, N,N-Dimethyl-1-[1-[[1-methyl-4-[6-(methylamino)-3-pyridyl]pyrrolo[2,3-b]pyridin-2-yl]methyl]-4-piperidyl]-2-oxo-pyridine-4-carboxamide] | 6.23
25 | CNc1ccc(-c2ccnc3c2cc(CN2CC[C@@H](c4ccc(C(=O)N(C)C)cc4)[C@H](F)C2)n3C)cn1 (single isomer, unassigned) [Example 1s25] | 7.45
26 | CNc1ccc(-c2ccnc3c2cc([C@@H](C)N2CCC(c4ccc(C(=O)N(C)C)cc4)CC2)n3C)nc1 [Example 1o25, (R)—N,N-dimethyl-4-(1-(1-(1-methyl-4-(5-(methyl-amino)pyridin-2-yl)-1H-pyrrolo[2,3-b]pyridin-2-yl)ethyl)piperidin-4-yl)benzamide] | 5.87
27 | CC(=O)Nc1ccc(-c2ccnc3c2cc(CN2CC[C@H](c4ccc(C(=O)N(C)C)cc4)[C@@H](C)C2=O)n3C)cc1 (single isomer, unassigned) [1aa2′] | 6.94
28 | CNc1ccc(-c2ccnc3c2cc(CN2CCC(F)(c4ccc(C(=O)N(C)C)cc4)CC2)n3C)nc1 [Example 1o19, 4-[4-Fluoro-1-[[1-methyl-4-[5-(methylamino)-2-pyridyl]pyrrolo[2,3-b]pyridin-2-yl]methyl]-4-piperidyl]-N,N-dimethyl-benzamide] | 6.76
